Assay results as given in ChEMBL document CHEMBL1121606, “Synthesis and beta-adrenergic blocking activity of new aliphatic oxime ethers” (J Med Chem, 1980).
The source made the active and inactive calls. No cut-off for these calls is given here.

Legend:
Format in all cases: functional, organism-based
Cavia porcellus [1] = species on record: Cavia porcellus; test: The apparent pA2 value was measured for beta-2-adrenergic blocking activity on the trachea of guinea pig; Inactive at 3e-4
Cavia porcellus [2] = species on record: Cavia porcellus; test: Antagonism of the isoprenaline-induced positive chronotropic effect on the atria of guinea pig at 3e-4 M/l; settings: read-out: pA2 (converted)
Cavia porcellus [3] = species on record: Cavia porcellus; test: Antagonism of the isoprenaline-induced positive chronotropic effect on the atria of guinea pig; Inactive at 1e-4 mol/L

| SMILES | pA2 (Cavia porcellus [1]) | Kb (Cavia porcellus [2]) | pA2 (Cavia porcellus [3]) |
| --- | --- | --- | --- |
| CC(C)NCC(O)CNC(C)C | inactive | 200 µM |  |
| CC(C)(C)NCC(O)CO (stereo not drawn) |  |  | inactive |
